The results in this text go back to ChEMBL document CHEMBL3526034 (Drug Metab Dispos, 2013).

In one series the target is CYP2C9 (Homo sapiens, UniProt P11712). Nature of the series: Inhibition of CYP2C9 in human liver microsomes using diclofenac as substrate at 100 uM preincubated for 20 mins with substrate prior to initiation of reaction with NADPH by HPLC analysis. To be noted: probe diclofenac. The class given is ADME. A general note: Liver microsomes are vesicles of endoplasmic reticulum, rich in cytochrome P450 enzymes.

The target in series [1] is Solute carrier organic anion transporter family member 1B3 (Homo sapiens, UniProt Q9NPD5). Kind of series: Inhibition of human OATP1B3 expressed in BacMam baculovirus virus infected HEK MSR2 cells using [3H]estradiol 17beta-D-glucuronide as substrate by liquid scintillation counting analysis. Type of series: ADME, HEK293.
The target of series [2] is T1, Cytochrome P450 2D6 (Homo sapiens, UniProt P10635). Nature of the series: Drug metabolism in supersomes expressing human recombinant CYP2D6 assessed as NADPH-fortified enzyme-mediated metabolite formation at 5 uM after 120 mins by radio HPLC analysis. The class given is ADME. The settings on record: 2 h.
Another series deals with CYP2B6 (Homo sapiens, UniProt P20813). Kind of series: Inhibition of CYP2B6 in human liver microsomes using bupropion as substrate at 100 uM preincubated for 20 mins with substrate prior to initiation of reaction with NADPH by HPLC analysis. The class given is ADME. The settings on record: probe bupropion.
The next series has as its system Hepatocyte. Nature of the series: Induction of CYP2B6 mRNA expression in human hepatocytes at 1 to 40 uM after 48 hrs by real time PCR analysis. Type of series: ADME, cell-based. A general note: Quantitative PCR measures a nucleic acid by following its amplification.
The target in the next series is T2, Cytochrome P450 1A2 (Homo sapiens, UniProt P05177).
T2 sequence (P05177 whole entry): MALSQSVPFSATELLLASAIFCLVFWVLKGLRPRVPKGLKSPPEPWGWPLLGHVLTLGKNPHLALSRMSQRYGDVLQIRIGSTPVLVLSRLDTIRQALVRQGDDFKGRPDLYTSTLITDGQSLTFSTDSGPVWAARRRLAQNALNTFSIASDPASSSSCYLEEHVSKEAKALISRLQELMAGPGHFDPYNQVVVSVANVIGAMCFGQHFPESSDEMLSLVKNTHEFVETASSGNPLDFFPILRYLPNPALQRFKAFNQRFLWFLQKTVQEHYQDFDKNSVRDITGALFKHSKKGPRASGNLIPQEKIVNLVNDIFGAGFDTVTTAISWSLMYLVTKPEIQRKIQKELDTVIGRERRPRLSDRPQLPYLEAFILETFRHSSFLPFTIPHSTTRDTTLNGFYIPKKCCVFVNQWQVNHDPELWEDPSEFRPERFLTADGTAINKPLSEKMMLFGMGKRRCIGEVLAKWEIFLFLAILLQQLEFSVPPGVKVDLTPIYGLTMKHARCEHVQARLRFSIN
Kind of series: Metabolism-dependent inhibition of CYP1A2 in human liver microsomes using phenacetin as substrate preincubated for 20 mins with NADPH prior to initiation of reaction with probe substrate by HPLC analysis. The class given is ADME.

Another series addresses Cytochrome P450 2C9 (Homo sapiens, UniProt P11712). Kind of series: Drug metabolism in supersomes expressing human recombinant CYP2C9 assessed as NADPH-fortified enzyme-mediated metabolite formation at 5 uM after 120 mins by radio HPLC analysis. Type of series: ADME. The settings on record: 2 h.
The target in series [3] is ATP-dependent translocase ABCB1 (Homo sapiens, UniProt P08183). Nature of the series: Inhibition of MDR1 (unknown origin) expressed in MDCK2 cells assessed as basolateral to apical transport of [3H]digoxin after 90 mins by liquid scintillation counting analysis. Type of series: ADME, cell-based, MDCK-II.
The target in another series is Cytochrome P450 2C19 (Homo sapiens, UniProt P33261). Nature of the series: Metabolism-dependent inhibition of CYP2C19 in human liver microsomes using S-mephenytoin as substrate preincubated for 20 mins with NADPH prior to initiation of reaction with probe substrate by HPLC analysis. Type of series: ADME.
The target in series [4] is UDP-glucuronosyltransferase 1A6 (Homo sapiens, UniProt P19224). Kind of series: Drug metabolism assessed as UDPGA-fortified human recombinant UGT1A6-mediated DTG glucuronide metabolite ((2S,3S,4S,5R,6S)-6-((4R,12aS)-9-(2,4-difluorobenzylcarbamoyl)-4-methyl-6,8-dioxo-3,4,6,8,12,12a-hexahydro-2H-[1,3]oxazino[3,2-d]pyrido[1,2-a]pyrazin-7-yloxy)-3,4,5-trihydroxytetrahydro-2H-pyran-2-carboxylic acid) formation at 16 uM after 120 mins by radio-HPLC analysis. The class given is ADME. The settings on record: recombinant enzyme.

The target in a further series is T3, Cytochrome P450 2B6 (Homo sapiens, UniProt P20813).
T3 sequence (P20813 whole entry): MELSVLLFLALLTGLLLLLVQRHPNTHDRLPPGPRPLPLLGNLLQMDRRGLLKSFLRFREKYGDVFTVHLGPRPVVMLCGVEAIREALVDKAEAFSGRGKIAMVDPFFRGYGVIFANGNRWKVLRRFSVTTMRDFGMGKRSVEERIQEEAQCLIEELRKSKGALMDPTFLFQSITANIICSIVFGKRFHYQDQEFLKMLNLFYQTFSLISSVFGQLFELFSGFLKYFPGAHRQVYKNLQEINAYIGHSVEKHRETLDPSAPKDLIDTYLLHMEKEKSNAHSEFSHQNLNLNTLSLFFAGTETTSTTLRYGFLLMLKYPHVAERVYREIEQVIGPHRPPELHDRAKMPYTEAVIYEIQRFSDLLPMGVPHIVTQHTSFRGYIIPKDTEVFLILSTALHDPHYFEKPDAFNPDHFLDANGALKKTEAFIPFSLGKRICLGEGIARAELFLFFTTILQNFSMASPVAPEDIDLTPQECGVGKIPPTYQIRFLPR
Kind of series: Inhibition of CYP2B6 in human liver microsomes using bupropion as substrate preincubated for 20 mins with substrate prior to initiation of reaction with NADPH by HPLC analysis. The class given is ADME.

In another series the test system is Liver microsome. Kind of series: Drug metabolism in NADPH-fortified human liver microsomes assessed as metabolite M3 ((4R,12aS)-N-((3,5-difluorophenyl)(hydroxy)methyl)-7-hydroxy-4-methyl-6,8-dioxo-3,4,6,8,12,12a-hexahydro-2H-[1,3]oxazino[3,2-d]pyrido[1,2-a]pyrazine-9-carboxamide) formation at 5 uM after 120 mins by radio-HPLC analysis. Type of series: ADME.
Series [5] deals with UDP-glucuronosyltransferase 1A3 (Homo sapiens, UniProt P35503). Kind of series: Drug metabolism assessed as UDPGA-fortified human recombinant UGT1A3-mediated DTG glucuronide metabolite ((2S,3S,4S,5R,6S)-6-((4R,12aS)-9-(2,4-difluorobenzylcarbamoyl)-4-methyl-6,8-dioxo-3,4,6,8,12,12a-hexahydro-2H-[1,3]oxazino[3,2-d]pyrido[1,2-a]pyrazin-7-yloxy)-3,4,5-trihydroxytetrahydro-2H-pyran-2-carboxylic acid) formation at 16 uM after 120 mins by radio-HPLC analysis. The class given is ADME. The settings on record: recombinant enzyme.

In series [6] the target is UDP-glucuronosyltransferase 2B15 (Homo sapiens, UniProt P54855). Kind of series: Drug metabolism assessed as UDPGA-fortified human recombinant UGT2B15-mediated DTG glucuronide metabolite ((2S,3S,4S,5R,6S)-6-((4R,12aS)-9-(2,4-difluorobenzylcarbamoyl)-4-methyl-6,8-dioxo-3,4,6,8,12,12a-hexahydro-2H-[1,3]oxazino[3,2-d]pyrido[1,2-a]pyrazin-7-yloxy)-3,4,5-trihydroxytetrahydro-2H-pyran-2-carboxylic acid) formation at 16 uM after 120 mins by radio-HPLC analysis. Type of series: ADME. The settings on record: recombinant enzyme.

The target in series [7] is T1, Cytochrome P450 2D6. Kind of series: Inhibition of CYP2D6 in human liver microsomes using bufuralol as substrate preincubated for 20 mins with substrate prior to initiation of reaction with NADPH by HPLC analysis. Type of series: ADME.

Some results are limits rather than exact numbers.

T1 sequence (P10635 whole entry): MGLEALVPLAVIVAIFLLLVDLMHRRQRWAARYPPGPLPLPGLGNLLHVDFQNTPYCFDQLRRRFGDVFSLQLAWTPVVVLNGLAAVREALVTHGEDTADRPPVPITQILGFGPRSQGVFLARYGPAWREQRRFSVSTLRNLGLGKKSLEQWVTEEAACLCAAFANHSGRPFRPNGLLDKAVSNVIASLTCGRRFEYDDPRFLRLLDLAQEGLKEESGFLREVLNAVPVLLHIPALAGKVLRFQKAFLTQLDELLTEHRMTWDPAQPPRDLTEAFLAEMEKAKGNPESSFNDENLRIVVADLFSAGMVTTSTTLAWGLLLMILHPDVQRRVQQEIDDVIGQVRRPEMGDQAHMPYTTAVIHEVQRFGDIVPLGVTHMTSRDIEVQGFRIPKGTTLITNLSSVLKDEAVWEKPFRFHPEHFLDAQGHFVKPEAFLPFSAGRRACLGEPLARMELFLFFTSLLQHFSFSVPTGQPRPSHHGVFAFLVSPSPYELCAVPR
UDP-glucuronosyltransferase 1A3, sequence (P35503 whole entry): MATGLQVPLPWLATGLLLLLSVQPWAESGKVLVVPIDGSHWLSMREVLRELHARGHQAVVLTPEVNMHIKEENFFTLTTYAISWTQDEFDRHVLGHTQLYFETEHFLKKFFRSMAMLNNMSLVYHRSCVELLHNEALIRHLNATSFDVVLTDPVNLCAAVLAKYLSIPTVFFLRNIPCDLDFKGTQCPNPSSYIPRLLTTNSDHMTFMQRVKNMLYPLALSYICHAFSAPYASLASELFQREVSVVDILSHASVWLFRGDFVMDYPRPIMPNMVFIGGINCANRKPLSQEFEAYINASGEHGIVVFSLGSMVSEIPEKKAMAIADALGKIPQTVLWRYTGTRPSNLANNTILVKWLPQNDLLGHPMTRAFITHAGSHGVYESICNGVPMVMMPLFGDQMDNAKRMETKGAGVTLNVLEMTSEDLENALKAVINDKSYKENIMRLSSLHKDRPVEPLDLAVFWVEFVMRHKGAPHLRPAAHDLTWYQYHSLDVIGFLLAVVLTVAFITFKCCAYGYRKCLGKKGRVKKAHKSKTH
Cytochrome P450 2C19, sequence (P33261 whole entry): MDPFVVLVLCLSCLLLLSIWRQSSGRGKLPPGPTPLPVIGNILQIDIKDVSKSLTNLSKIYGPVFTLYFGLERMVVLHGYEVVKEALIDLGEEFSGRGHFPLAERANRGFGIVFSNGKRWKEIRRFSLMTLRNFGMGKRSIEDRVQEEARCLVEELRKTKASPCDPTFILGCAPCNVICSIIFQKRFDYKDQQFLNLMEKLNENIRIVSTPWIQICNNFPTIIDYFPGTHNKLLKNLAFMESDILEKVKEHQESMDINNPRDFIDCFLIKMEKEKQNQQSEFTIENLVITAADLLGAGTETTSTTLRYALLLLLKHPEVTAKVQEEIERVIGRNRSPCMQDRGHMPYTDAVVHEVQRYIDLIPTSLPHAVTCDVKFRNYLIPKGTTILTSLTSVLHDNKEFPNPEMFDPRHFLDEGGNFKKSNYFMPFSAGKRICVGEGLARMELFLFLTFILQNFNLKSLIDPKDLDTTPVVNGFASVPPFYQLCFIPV
Solute carrier organic anion transporter family member 1B3, sequence (Q9NPD5 whole entry): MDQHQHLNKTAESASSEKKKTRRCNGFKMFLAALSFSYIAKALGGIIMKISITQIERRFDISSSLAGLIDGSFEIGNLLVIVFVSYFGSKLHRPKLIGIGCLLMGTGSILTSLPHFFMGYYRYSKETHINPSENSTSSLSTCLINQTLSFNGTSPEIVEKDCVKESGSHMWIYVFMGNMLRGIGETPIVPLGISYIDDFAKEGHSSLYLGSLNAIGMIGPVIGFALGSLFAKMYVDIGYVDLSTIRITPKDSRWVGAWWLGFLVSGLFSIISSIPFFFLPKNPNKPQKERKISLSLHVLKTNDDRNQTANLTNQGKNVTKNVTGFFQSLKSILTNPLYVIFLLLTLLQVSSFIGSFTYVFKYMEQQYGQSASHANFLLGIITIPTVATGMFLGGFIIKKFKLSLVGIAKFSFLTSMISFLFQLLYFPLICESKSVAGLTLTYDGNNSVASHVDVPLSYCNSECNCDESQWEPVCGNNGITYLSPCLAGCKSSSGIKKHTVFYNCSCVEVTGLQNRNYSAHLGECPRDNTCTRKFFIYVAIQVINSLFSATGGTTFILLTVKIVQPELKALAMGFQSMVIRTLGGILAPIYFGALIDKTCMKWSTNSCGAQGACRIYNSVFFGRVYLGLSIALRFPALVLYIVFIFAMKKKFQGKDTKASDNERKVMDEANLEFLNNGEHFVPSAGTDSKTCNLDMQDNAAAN
UDP-glucuronosyltransferase 1A6, sequence (P19224 whole entry): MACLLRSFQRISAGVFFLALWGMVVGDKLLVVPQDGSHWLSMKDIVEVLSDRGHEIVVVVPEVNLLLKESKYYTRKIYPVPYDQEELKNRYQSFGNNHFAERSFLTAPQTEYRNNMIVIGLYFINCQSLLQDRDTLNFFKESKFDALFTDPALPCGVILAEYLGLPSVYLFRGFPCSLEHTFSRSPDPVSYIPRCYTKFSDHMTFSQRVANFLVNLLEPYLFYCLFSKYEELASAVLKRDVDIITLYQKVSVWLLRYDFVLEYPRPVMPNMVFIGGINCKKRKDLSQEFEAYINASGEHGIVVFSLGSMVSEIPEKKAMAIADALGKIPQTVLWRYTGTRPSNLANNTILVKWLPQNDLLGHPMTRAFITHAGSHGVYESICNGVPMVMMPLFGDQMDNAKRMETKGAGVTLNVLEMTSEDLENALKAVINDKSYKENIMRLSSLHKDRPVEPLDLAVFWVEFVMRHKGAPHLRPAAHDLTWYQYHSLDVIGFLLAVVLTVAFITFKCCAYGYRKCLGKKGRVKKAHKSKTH
CYP2C9, sequence (P11712 whole entry): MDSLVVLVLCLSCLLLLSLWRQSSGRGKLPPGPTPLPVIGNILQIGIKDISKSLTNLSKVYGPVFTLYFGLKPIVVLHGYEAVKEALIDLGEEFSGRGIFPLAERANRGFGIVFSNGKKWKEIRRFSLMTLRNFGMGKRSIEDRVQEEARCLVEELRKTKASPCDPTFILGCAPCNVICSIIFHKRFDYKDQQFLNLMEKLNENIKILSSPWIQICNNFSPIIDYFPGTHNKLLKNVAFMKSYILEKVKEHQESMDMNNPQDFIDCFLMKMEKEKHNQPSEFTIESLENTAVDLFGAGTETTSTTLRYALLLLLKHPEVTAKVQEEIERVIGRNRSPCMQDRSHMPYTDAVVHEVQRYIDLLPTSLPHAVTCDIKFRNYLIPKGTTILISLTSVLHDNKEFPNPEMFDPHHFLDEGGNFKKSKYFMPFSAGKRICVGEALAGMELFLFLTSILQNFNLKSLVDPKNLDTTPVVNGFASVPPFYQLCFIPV
Cytochrome P450 2C9, sequence (P11712 whole entry): as above
UDP-glucuronosyltransferase 2B15, sequence (P54855 whole entry): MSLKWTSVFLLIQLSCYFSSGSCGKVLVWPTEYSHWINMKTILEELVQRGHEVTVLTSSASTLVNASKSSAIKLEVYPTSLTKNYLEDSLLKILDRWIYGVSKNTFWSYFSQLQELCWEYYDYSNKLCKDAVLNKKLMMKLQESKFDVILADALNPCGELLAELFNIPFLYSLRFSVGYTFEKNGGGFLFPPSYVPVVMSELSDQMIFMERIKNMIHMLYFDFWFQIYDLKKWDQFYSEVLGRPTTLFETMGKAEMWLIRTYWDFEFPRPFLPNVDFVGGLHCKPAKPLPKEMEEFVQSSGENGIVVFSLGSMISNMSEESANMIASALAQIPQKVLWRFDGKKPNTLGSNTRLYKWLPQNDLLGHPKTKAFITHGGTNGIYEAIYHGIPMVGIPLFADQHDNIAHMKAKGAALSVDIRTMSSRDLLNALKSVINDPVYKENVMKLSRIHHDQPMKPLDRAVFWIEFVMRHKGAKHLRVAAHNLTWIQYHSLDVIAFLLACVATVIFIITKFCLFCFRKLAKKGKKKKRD

With `C[C@@H]1CCO[C@H]2Cn3cc(C(=O)NCc4ccc(F)cc4F)c(=O)c(O)c3C(=O)N12` [DOLUTEGRAVIR], the inhibition at 100 µM at CYP2C9 and against CYP2B6 was 20% in each case. Moreover, the IC50 (in series [1]; against Cytochrome P450 1A2; in series [3]; on Cytochrome P450 2C19; against Cytochrome P450 2B6; against Cytochrome P450 2D6 [7]) was greater than 100 µM throughout. The Drug metabolism entry is listed as “metabolite_not_detected” on Cytochrome P450 2D6 [2]; “metabolite_not_detected” on Cytochrome P450 2C9; “metabolite_not_detected” in series [4]; “metabolite_detected” in the series with Liver microsome; “metabolite_detected” in [5]; “metabolite_not_detected” in [6]. For the same compound, the Activity result in the series on Hepatocyte is listed as “Toxic”.

As a reminder, the inhibition is the relative decrease from the control value, in per cent. Usually IC50 stands for the concentration that inhibits the measured activity by half.
